According to patent publication US5416191A, “Bradykinin antagonists” (Cortech, Inc., priority 1993, dated 1995):
Read-outs that look alike come from different tables or passages of the source. Peptide text beside a SMILES is read from it.

Experiments:
[1] = target: T1, bradykinin receptor of the B2 class (rat uterus) (Rattus norvegicus, UniProt P25023); assay: Rat uterus (RU) in vitro, antagonism of bradykinin; settings: Table C, rat uterus
T1 construct: concentration effect curves to bradykinin (BK) on rat uterus in vitro; from tissue; host or cells: rat uterus
T1 sequence (P25023 1-396): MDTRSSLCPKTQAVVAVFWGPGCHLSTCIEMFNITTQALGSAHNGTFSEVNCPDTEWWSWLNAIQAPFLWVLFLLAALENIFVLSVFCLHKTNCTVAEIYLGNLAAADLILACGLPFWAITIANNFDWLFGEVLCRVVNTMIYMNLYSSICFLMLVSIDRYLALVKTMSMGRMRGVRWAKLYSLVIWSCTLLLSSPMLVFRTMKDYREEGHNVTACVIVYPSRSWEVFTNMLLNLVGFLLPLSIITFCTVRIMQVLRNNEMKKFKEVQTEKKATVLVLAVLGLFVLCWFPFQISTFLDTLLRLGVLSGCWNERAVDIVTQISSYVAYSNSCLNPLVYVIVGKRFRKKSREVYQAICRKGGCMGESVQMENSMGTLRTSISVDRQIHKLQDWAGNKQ
Procedure: Thus in vitro studies were performed on standard assay systems, namely, guinea-pig ileum (GPI), rat uterus (RU) and rabbit jugular vein (RJV). […] The PA2 can be defined as the negative logarithm of the molar concentration of the antagonist in the presence of which the potency of the agonist is reduced two-fold, i.e. twice the amount of agonist is required to produce a given response in the presence of, than in the absence of, the antagonist. A high potency of antagonism is indicated by a high PA2 value, i.e., a low concentration of antagonist is effective.
The percentage recovery (% Rec) was also determined for compounds with respect to each assay.
With respect to duration of activity, it is noted that after exposure to the highest concentration of antagonist, each tissue was washed extensively and then assessed for recovery from the antagonist effect.
Potency in the rat uterus assay was assessed as described above and PA2 values determined.

[2] = target: T2, bradykinin receptor of the B2 class (guinea-pig ileum) (Cavia porcellus, UniProt O70526); settings: Table B; Cys position scan, monomers and BMH dimers
T2 sequence (O70526 1-372): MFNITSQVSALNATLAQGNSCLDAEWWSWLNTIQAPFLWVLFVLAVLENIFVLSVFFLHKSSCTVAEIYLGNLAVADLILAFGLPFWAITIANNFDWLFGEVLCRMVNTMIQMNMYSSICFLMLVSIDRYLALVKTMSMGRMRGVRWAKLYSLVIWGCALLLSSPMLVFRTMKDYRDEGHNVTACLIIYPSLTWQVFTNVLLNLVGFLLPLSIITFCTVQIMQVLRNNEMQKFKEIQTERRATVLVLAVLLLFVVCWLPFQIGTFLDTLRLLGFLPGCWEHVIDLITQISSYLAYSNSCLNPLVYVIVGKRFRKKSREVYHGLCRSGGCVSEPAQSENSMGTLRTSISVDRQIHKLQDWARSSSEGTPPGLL

[3] = target: T2, bradykinin receptor of the B2 class (guinea-pig ileum)
[4] = P.A. = Partial Agonist, read-out: pA2 MONOMER (converted)
[5] = read-out: pA2 DIMER (converted)

Compound	pA2 GUINEA PIG ILEUM [2]	% REC MONOMER [1]	Kb [1, 4]	Kb [3]	% REC DIMER [1]	Kb [1, 5]	other results
CC(C)C[C@H](NC(=O)[C@@H](Cc1ccccc1)NC(=O)[C@H](CO)NC(=O)[C@H](Cc1ccccc1)NC(=O)CNC(=O)[C@@H]1C[C@@H](O)CN1C(=O)[C@@H]1CCCN1C(=O)[C@H](CCCNC(=N)N)NC(=O)[C@H](N)CCCNC(=N)N)C(=O)N[C@@H](CSC1CC(=O)N(CCCCCCN2C(=O)CC(SC[C@H](NC(=O)[C@H](CC(C)C)NC(=O)[C@@H](Cc3ccccc3)NC(=O)[C@H](CO)NC(=O)[C@H](Cc3ccccc3)NC(=O)CNC(=O)[C@@H]3C[C@@H](O)CN3C(=O)[C@@H]3CCCN3C(=O)[C@H](CCCNC(=N)N)NC(=O)[C@H](N)CCCNC(=N)N)C(=O)O)C2=O)C1=O)C(=O)O (some centres unmarked) [CP-0160] (HELM PEPTIDE1{[dR].R.P.[Hyp].G.F.S.[dF].L.C}|PEPTIDE2{[dR].R.P.[Hyp].G.F.S.[dF].L.C}|CHEM1{[O=C1CC([*:1])C(=O)N1CCCCCCN1C(=O)CC([*:2])C1=O]}$PEPTIDE1,CHEM1,10:R3-1:R1|PEPTIDE2,CHEM1,10:R3-1:R2$$$V2.0)	Inactive	–	–	–	–	–	pA2 DIMER [1]: Inactive
CC(C)C[C@H](NC(=O)[C@@H](Cc1ccccc1)NC(=O)[C@H](CO)NC(=O)[C@H](Cc1ccccc1)NC(=O)[C@H](CSC1CC(=O)N(CCCCCCN2C(=O)CC(SC[C@H](NC(=O)[C@@H]3C[C@@H](O)CN3C(=O)[C@@H]3CCCN3C(=O)[C@H](CCCNC(=N)N)NC(=O)[C@H](N)CCCNC(=N)N)C(=O)N[C@@H](Cc3ccccc3)C(=O)N[C@@H](CO)C(=O)N[C@H](Cc3ccccc3)C(=O)N[C@@H](CC(C)C)C(=O)N[C@@H](CCCNC(=N)N)C(=O)O)C2=O)C1=O)NC(=O)[C@@H]1C[C@@H](O)CN1C(=O)[C@@H]1CCCN1C(=O)[C@H](CCCNC(=N)N)NC(=O)[C@H](N)CCCNC(=N)N)C(=O)N[C@@H](CCCNC(=N)N)C(=O)O (some centres unmarked) [CP-0137] (HELM PEPTIDE1{[dR].R.P.[Hyp].C.F.S.[dF].L.R}|PEPTIDE2{[dR].R.P.[Hyp].C.F.S.[dF].L.R}|CHEM1{[O=C1CC([*:1])C(=O)N1CCCCCCN1C(=O)CC([*:2])C1=O]}$PEPTIDE1,CHEM1,5:R3-1:R1|PEPTIDE2,CHEM1,5:R3-1:R2$$$V2.0)	Inactive	–	–	–	–	–	pA2 DIMER [1]: Inactive
N=C(N)NCCC[C@@H](N)C(=O)N[C@@H](CCCNC(=N)N)C(=O)N1CCC[C@H]1C(=O)N1C[C@H](O)C[C@H]1C(=O)NCC(=O)N[C@@H](Cc1ccccc1)C(=O)N[C@@H](CO)C(=O)N[C@H](Cc1ccccc1)C(=O)N[C@@H](CS)C(=O)N[C@@H](CCCNC(=N)N)C(=O)O [CP-0147] (HELM PEPTIDE1{[dR].R.P.[Hyp].G.F.S.[dF].C.R}$$$$V2.0)	Inactive	–	–	–	–	–	pA2 MONOMER ([1]; P.A. = Partial Agonist): Inactive
CC(C)C[C@H](NC(=O)[C@@H](Cc1ccccc1)NC(=O)[C@H](CO)NC(=O)[C@H](Cc1ccccc1)NC(=O)CNC(=O)[C@@H]1C[C@@H](O)CN1C(=O)[C@H](CS)NC(=O)[C@H](CCCNC(=N)N)NC(=O)[C@H](N)CCCNC(=N)N)C(=O)N[C@@H](CCCNC(=N)N)C(=O)O [CP-0142] (HELM PEPTIDE1{[dR].R.C.[Hyp].G.F.S.[dF].L.R}$$$$V2.0)	–	80%	398 nM	~2000 nM	–	–	–
CC(C)C[C@H](NC(=O)[C@@H](Cc1ccccc1)NC(=O)[C@H](CO)NC(=O)[C@H](Cc1ccccc1)NC(=O)CNC(=O)[C@@H]1C[C@@H](O)CN1C(=O)[C@@H]1CCCN1C(=O)[C@H](CCCNC(=N)N)NC(=O)[C@@H](N)CS)C(=O)N[C@@H](CCCNC(=N)N)C(=O)O [CP-0140] (HELM PEPTIDE1{C.R.P.[Hyp].G.F.S.[dF].L.R}$$$$V2.0)	–	50%	100 nM	~316 nM	–	–	–
CC(C)C[C@H](NC(=O)[C@@H](Cc1ccccc1)NC(=O)[C@H](CO)NC(=O)[C@H](Cc1ccccc1)NC(=O)CNC(=O)[C@@H]1C[C@@H](O)CN1C(=O)[C@@H]1CCCN1C(=O)[C@H](CCCNC(=N)N)NC(=O)[C@H](N)CS)C(=O)N[C@@H](CCCNC(=N)N)C(=O)O [CP-0149] (HELM PEPTIDE1{[dC].R.P.[Hyp].G.F.S.[dF].L.R}$$$$V2.0)	–	75%	79.4 nM	~501 nM	–	–	–
CC(C)C[C@H](NC(=O)[C@@H](Cc1ccccc1)NC(=O)[C@H](CO)NC(=O)[C@H](CSC1CC(=O)N(CCCCCCN2C(=O)CC(SC[C@H](NC(=O)CNC(=O)[C@@H]3C[C@@H](O)CN3C(=O)[C@@H]3CCCN3C(=O)[C@H](CCCNC(=N)N)NC(=O)[C@H](N)CCCNC(=N)N)C(=O)N[C@@H](CO)C(=O)N[C@H](Cc3ccccc3)C(=O)N[C@@H](CC(C)C)C(=O)N[C@@H](CCCNC(=N)N)C(=O)O)C2=O)C1=O)NC(=O)CNC(=O)[C@@H]1C[C@@H](O)CN1C(=O)[C@@H]1CCCN1C(=O)[C@H](CCCNC(=N)N)NC(=O)[C@H](N)CCCNC(=N)N)C(=O)N[C@@H](CCCNC(=N)N)C(=O)O (some centres unmarked) [CP-0156] (HELM PEPTIDE1{[dR].R.P.[Hyp].G.C.S.[dF].L.R}|PEPTIDE2{[dR].R.P.[Hyp].G.C.S.[dF].L.R}|CHEM1{[O=C1CC([*:1])C(=O)N1CCCCCCN1C(=O)CC([*:2])C1=O]}$PEPTIDE1,CHEM1,6:R3-1:R1|PEPTIDE2,CHEM1,6:R3-1:R2$$$V2.0)	–	–	–	~12.6 nM	75%	7.94 nM	–
CC(C)C[C@H](NC(=O)[C@@H](Cc1ccccc1)NC(=O)[C@H](CO)NC(=O)[C@H](Cc1ccccc1)NC(=O)CNC(=O)[C@H](CSC1CC(=O)N(CCCCCCN2C(=O)CC(SC[C@H](NC(=O)[C@@H]3CCCN3C(=O)[C@H](CCCNC(=N)N)NC(=O)[C@H](N)CCCNC(=N)N)C(=O)NCC(=O)N[C@@H](Cc3ccccc3)C(=O)N[C@@H](CO)C(=O)N[C@H](Cc3ccccc3)C(=O)N[C@@H](CC(C)C)C(=O)N[C@@H](CCCNC(=N)N)C(=O)O)C2=O)C1=O)NC(=O)[C@@H]1CCCN1C(=O)[C@H](CCCNC(=N)N)NC(=O)[C@H](N)CCCNC(=N)N)C(=O)N[C@@H](CCCNC(=N)N)C(=O)O (some centres unmarked) [CP-0155] (HELM PEPTIDE1{[dR].R.P.C.G.F.S.[dF].L.R}|PEPTIDE2{[dR].R.P.C.G.F.S.[dF].L.R}|CHEM1{[O=C1CC([*:1])C(=O)N1CCCCCCN1C(=O)CC([*:2])C1=O]}$PEPTIDE1,CHEM1,4:R3-1:R1|PEPTIDE2,CHEM1,4:R3-1:R2$$$V2.0)	–	–	–	~79.4 nM	100%	631 nM	–
CC(C)C[C@H](NC(=O)[C@@H](Cc1ccccc1)NC(=O)[C@H](CO)NC(=O)[C@H](Cc1ccccc1)NC(=O)CNC(=O)[C@@H]1C[C@@H](O)CN1C(=O)[C@@H]1CCCN1C(=O)[C@H](CCCNC(=N)N)NC(=O)[C@@H](N)CSC1CC(=O)N(CCCCCCN2C(=O)CC(SC[C@H](N)C(=O)N[C@@H](CCCNC(=N)N)C(=O)N3CCC[C@H]3C(=O)N3C[C@H](O)C[C@H]3C(=O)NCC(=O)N[C@@H](Cc3ccccc3)C(=O)N[C@@H](CO)C(=O)N[C@H](Cc3ccccc3)C(=O)N[C@@H](CC(C)C)C(=O)N[C@@H](CCCNC(=N)N)C(=O)O)C2=O)C1=O)C(=O)N[C@@H](CCCNC(=N)N)C(=O)O (some centres unmarked) [CP-0152] (HELM PEPTIDE1{C.R.P.[Hyp].G.F.S.[dF].L.R}|PEPTIDE2{C.R.P.[Hyp].G.F.S.[dF].L.R}|CHEM1{[O=C1CC([*:1])C(=O)N1CCCCCCN1C(=O)CC([*:2])C1=O]}$PEPTIDE1,CHEM1,1:R3-1:R1|PEPTIDE2,CHEM1,1:R3-1:R2$$$V2.0)	–	–	–	~316 nM	50%	12.6 nM	–
CC(C)C[C@H](NC(=O)[C@@H](Cc1ccccc1)NC(=O)[C@H](CO)NC(=O)[C@H](Cc1ccccc1)NC(=O)CNC(=O)[C@H](CS)NC(=O)[C@@H]1CCCN1C(=O)[C@H](CCCNC(=N)N)NC(=O)[C@H](N)CCCNC(=N)N)C(=O)N[C@@H](CCCNC(=N)N)C(=O)O [CP-0143] (HELM PEPTIDE1{[dR].R.P.C.G.F.S.[dF].L.R}$$$$V2.0)	–	–	–	~316 nM	–	–	pA2 MONOMER ([1]; P.A. = Partial Agonist): P.A.
